Assay results reported in patent publication EP1143976B9, “BETA-D-2', 3' -DIDEHYDRO-2', 3' -DIDEOXY-5-FLUOROCYTIDINE FOR USE IN THE TREATMENT OF HIV INFECTIONS” (priority 1999, dated 2000).
Values joined by “and” are separate entries in the source; they are usually repeats but may differ in a detail not shown here. Equal values may be shown once. Read-outs that look alike come from different tables or passages of the source.

Legend:
[1] = system: HIV-1 in acutely infected human PBM cells; test: Median effect and combination index analysis in acutely infected human PBM cells (Day 6); type: cell-based; conditions: Human immunodeficiency virus 1, PBMC, 144 h
From the text: (§1) Table 5 provides the median effective concentration and combinations index (C.I.) values for D-D4FC alone and in combination with AZT and D4T in acutely infected human PBM cells (Day6). Table 6 describes the effect of β-D and β-L-D4FC against HIV-1 and cloned viruses I human PBM cells.

[2] = system: HIV-1p37 D-Fd4C#1; test: Antiviral susceptibility assay (p24 antigen) in MT-2 cells, D-D4FC selected virus, selection #1 passage 37; type: cell-based; conditions: V90I, R172K
Procedure: (§2) Selection of resistant virus. Prior to starting the selection of D-D4FC resistant virus, the starting virus (HIV -1LAI) was passaged as cell-free virus for 10 cycles in MT-2 cells in the absence of drug. D-D4FC resistant virus was selected by serially passaging HIV-1LAI in MT-2 cells in the presence of gradually increasing concentrations of D-D4FC. The selection for D-D4FC resistant virus was conducted twice. Selection was initiated by inoculating 1 x 10^6 MT-2 cells with […] of virus. At peak viral cytopathic effect (4-7 days post infection), supernatant from the infected cultures was collected and 0.1-0.3 ml were subsequently used to initiate another cycle of infection. Supernatant was also aliquoted and stored at -80°C for characterization of selected virus. Virus was passaged at least three times at each concentration, the number of cycles at any given concentration of drug being dependent on the ability of virus to grow at the particular concentration of D-D4FC. During the first selection procedure, virus was passaged once in the absence of drug prior to increasing the drug concentration (Table 2). As a control, virus was also passaged in parallel in the absence of drug. […]
Antiviral susceptibility assays. Virus susceptibility to D-D4FC was measured by measuring percent inhibition of p24 antigen production. […]

[3] = system: HIV-1p20 D-Fd4C#2; test: Antiviral susceptibility assay (p24 antigen) in MT-2 cells, D-D4FC selected virus, selection #2 passage 20; type: cell-based; conditions: mutations K65R, V179D; for EC50: p24 antigen, selection #2 passage 20
Procedure: as §2
(§3) Antiviral susceptibility assays. Virus susceptibility to D-D4FC was measured by measuring percent inhibition of p24 antigen production. Briefly, MT-2 cells (1 x 10^5 cells/ml) were infected with virus at a moi of 0.01 in the presence of serial D-D4FC dilutions. Each dilution was tested in triplicate. Culture supernatants were harvested day 7 post infection and assayed for p24 antigen production using a commercial assay (DuPont, NEN Products, Wilmington, Del.).

[4] = system: M184VPITT; test: Effect against HIV-1 and cloned viruses in human PBM cells; type: cell-based; conditions: for FI50: EC50 resistant virus relative to HIV-1LAV or xxBRUPITT; for FI90: EC90 resistant virus relative to HIV-1LAV or xxBRUPITT
From the text: as §1

[5] = system: xxBRUPITT; test: as above; type: cell-based; conditions: Human immunodeficiency virus 1, PBMC
From the text: as §1

[6] = system: 215/41PITT; test: as above; type: cell-based; conditions: for FI50: EC50 relative to HIV-1LAV or xxBRUPITT
From the text: as §1

[7] = system: 4X AZTPITT (67N,70R,215Y,219Q); test: as above; type: cell-based; conditions: for EC50 / EC90: human PBM cells
From the text: as §1

[8] = system: HIV-1LAV; test: as above; type: cell-based; conditions: Human immunodeficiency virus 1, PBMC
From the text: as §1

[9] = system: M184V/T215YPITT; test: as above; type: cell-based; conditions: for FI50: EC50 relative to HIV-1LAV or xxBRUPITT; for FI90: EC90 relative to HIV-1LAV or xxBRUPITT
From the text: as §1

[10] = system: T215YPITT; test: as above; type: cell-based; conditions: for FI50: EC50 relative to HIV-1LAV or xxBRUPITT; for FI90: EC90 relative to HIV-1LAV or xxBRUPITT
From the text: as §1

[11] = system: xxR172K; test: D-D4FC susceptibility of recombinant HIV-1 in MT-2 cells; type: cell-based
Procedure: as §3
(§4) Production of mutant recombinant HIV-1. Mutant RT was generated using the Altered SitesII in vitro Mutagenesis System (Promega, Madison, WI). Mutagenesis was carried out on HIV-1LAI, RT cloned into a mutagenesis vector (PALTER, Promega). The presence of the desired mutation was determined by direct sequencing of the RT gene. The mutant RT was subsequently ligated into the pxxHIV-1 LAI vector. Stocks of mutant virus were then prepared by electrophorating 5-10 µg of DNA into 1.3 x 10^7 MT-2 cells as described above.

[12] = system: xxK70N//R172K; test: as above; type: cell-based
Procedure: as §3, §4

[13] = system: xxV90I; test: as above; type: cell-based
Procedure: as §3, §4

[14] = system: xxK65R; test: as above; type: cell-based
Procedure: as §3, §4

[15] = system: xxV901/R172K; test: as above; type: cell-based
Procedure: as §3, §4

[16] = system: xxK70N; test: as above; type: cell-based
Procedure: as §3, §4

[17] = system: HIV-1LAI; test: Antiviral susceptibility assay (inhibition of p24 antigen production) in MT-2 cells, starting virus; type: cell-based; conditions: Human immunodeficiency virus 1, MT2, 168 h, day 7 post infection, HIV-1LAI P0, wild type baseline
Procedure: Cells. MT-2 cells (AIDS Research and Reference Reagent Program, National Institute of Allergy and Infectious Diseases, National Institutes of Health, contributed by D. Richman) were cultured in RPMI 1640 (Whittaker M.A., Bioproducts, Walkersville, MD) supplemented with 10% fetal bovine serum, 10 mM HEPES buffer, penicillin (50 IU/ml) and streptomycin (50 µg/ml).
Viruses. HIV-1LAI, a molecularly cloned clinical isolate, was used both as the starting virus for the resistance selection as well as for the generation of recombinant mutants. Stock preparations of HIV-1LAI, were prepared by electrophorating 5-10 jig of proviral plasmid DNA into 1.3 x 10^7 MT-2 cells. At peak viral cytopathic effect (generally 7 days post transfection), the supernatant from infected cultures was collected, aliquoted and stored at -80°C until use. Virus preparations were titered by threefold endpoint dilution in MT-2 cells, and the TCID50 was calculated with the Reed and Muench equation.
Antiviral susceptibility assays. Virus susceptibility to D-D4FC was measured by measuring percent inhibition of p24 antigen production. Briefly, MT-2 cells (1 x 10^5 cells/ml) were infected with virus at a moi of 0.01 in the presence of serial D-D4FC dilutions. Each dilution was tested in triplicate. […]

[18] = system: 4xM184VPITT (184V,67N,70R,215Y,219Q); test: Effect against cloned viruses, in MT-2 cells; type: cell-based, HIV-1; conditions: for FI50: In MT-2 cells, EC50 relative to HIV-1LAV or xxBRUPITT
[19] = system: G2-2PITT (103N,41L,184V,210W,others); test: Effect against cloned viruses, in MT-2 cells; type: cell-based, HIV-1; conditions: for FI50: In MT-2 cells, EC50 relative to HIV-1LAV or xxBRUPITT
[20] = system: L-D4FC-res.(25 µM); test: Effect against HIV-1 and cloned viruses in human PBM cells; type: cell-based
From the text: as §1

[21] = acutely infected human PBM cells, Day 6
[22] = median effective concentration, acutely infected human PBM cells, Day 6, read-out: EC50
[23] = Human immunodeficiency virus 1, PBMC, human PBM cells
[24] = EC90 relative to HIV-1LAV or xxBRUPITT
[25] = Human immunodeficiency virus 1, PBMC
[26] = Human immunodeficiency virus 1, MT2, In MT-2 cells (courtesy of Dr. J. Mellors)
[27] = human PBM cells, L-D4FC-res.(25 µM) virus
[28] = In MT-2 cells (courtesy of Dr. J. Mellors)

Cc1cn([C@H]2C[C@H](N=[N+]=[N-])[C@@H](CO)O2)c(=O)[nH]c1=O [AZT, 3'-azido-3'-deoxythymidine]
EC50 [1]: 3.3 nM

Cc1cn([C@H]2C=C[C@@H](CO)O2)c(=O)[nH]c1=O [D4T, 2',3'-dideoxy-2',3'-didehydrothymidine]
EC90 [1, 21]: 220 nM
EC50 [1, 22]: 15 nM

Nc1nc(=O)n([C@H]2C=C[C@@H](CO)O2)cc1F [D-D4FC, β-2',3'-didehydro-2',3'-dideoxy-5-fluorocytidine]
EC50 ([2]; Human immunodeficiency virus 1, MT2, p24 antigen, selection #1 passage 37, mutations K70N): 4.07 µM
Fold Resistance ([2]; versus wild type HIV-1LAI, mutations K70N, 10080 min): 19.3 and 19.4
EC50 ([3]; Human immunodeficiency virus 1, MT2, MT-2 cells): 1100 nM
EC50 ([3]; MT-2 cells): 1110 nM
Fold Resistance ([3]; MT-2 cells, versus wild type HIV-1LAI, 10080 min): 5.3
EC90 [1, 21]: 78 nM
EC50 [1, 22]: 7.6 nM
FI50 ([4]; listed as β-D-D4FC): 2
FI90 ([4]; listed as β-D-D4FC): 2
EC50 [4, 23]: 140 nM
EC90 [4, 23]: 1040 nM
EC50 [5]: 65 nM
FI50 ([6]; listed as β-D-D4FC): 2
FI90 [6, 24]: 1
EC50 [6, 23]: 130 nM
EC90 [6, 23]: 490 nM
FI50 ([7]; EC50 relative to HIV-1LAV or xxBRUPITT): 1
FI90 [7, 24]: 1
EC50 [7, 25]: 72 nM
EC90 [7, 25]: 460 nM
EC50 [8]: 220 nM
EC90 [8]: 1320 nM
FI50 ([9]; listed as β-D-D4FC): 1
FI90 ([9]; listed as β-D-D4FC): 1
EC50 [9, 23]: 57 nM
EC90 [9, 23]: 470 nM
FI50 ([10]; listed as β-D-D4FC): 1
FI90 ([10]; listed as β-D-D4FC): 1
EC50 [10, 23]: 67 nM
EC90 [10, 23]: 350 nM
EC50 ([11]; Human immunodeficiency virus 1, MT2, recombinant xxR172K): 230 nM
Fold Resistance ([11]; xxR172K versus xxLAI, 10080 min): 0.8
EC50 ([12]; Human immunodeficiency virus 1, MT2): 56 nM
Fold Resistance ([12]; MT-2 cells, xxK70N/V901/R172K versus xxLAI, 10080 min): 0.4
EC50 ([13]; Human immunodeficiency virus 1, MT2, recombinant xxV90I): 250 nM
Fold Resistance ([13]; xxV90I versus xxLAI, 10080 min): 1.5
EC50 ([14]; Human immunodeficiency virus 1, MT2, recombinant xxK65R): 1240 nM
Fold Resistance ([14]; xxK65R versus xxLAI, 10080 min): 3.9
EC50 ([15]; Human immunodeficiency virus 1, MT2, recombinant xxV901/R172K): 360 nM
Fold Resistance ([15]; xxV901/R172K versus xxLAI, 10080 min): 1.3
EC50 ([16]; Human immunodeficiency virus 1, MT2, recombinant xxK70N): 240 nM
Fold Resistance ([16]; xxK70N versus xxLAI, 10080 min): 1.4
EC50 [17]: 210 nM
EC50 [18, 26]: 45 nM
FI50 ([18]; listed as β-D-D4FC): 0.2
EC50 [19, 26]: 40 nM
FI50 ([19]; listed as β-D-D4FC): 0.2

Nc1nc(=O)n([C@H]2C=C[C@@H](CO)O2)cc1F [β-L-D4FC, β-2',3'-didehydro-2',3'-dideoxy-5-fluorocytidine, reference compound]
FI50 [4]: 146
FI90 [4]: 163
FI50 [6]: 1
FI50 ([20]; EC50 relative to HIV-1LAV or xxBRUPITT, L-D4FC-res.(25 µM)): 222
FI90 ([20]; EC90 relative to HIV-1LAV or xxBRUPITT, L-D4FC-res.(25 µM)): 208
EC50 [20, 27]: 7.56 µM
EC90 [20, 27]: 33.3 µM
EC50 [7]: 16 nM
EC90 [7]: 110 nM
FI50 [9]: 332
FI90 [9]: 848
FI50 [10]: 0.2
FI90 [10]: 0.3
EC50 [18, 28]: > 3300 nM
FI50 [18]: >47
EC50 [19, 28]: > 3300 nM
FI50 [19]: >47
